Active and inactive are the calls of the source. The calls are words filed in the database; no cut-off is given here. Residues, ends and D or L forms follow the SMILES beside them. *: point of attachment. Cbz = O=C(OCc1ccccc1)*

One test deals with AML12. In words: Protection against CCl4-induced ferroptosis in mouse AML12 cells assessed as cell viability. It is filed as functional, cell-based.
Test [1] concerns the target T1, von Hippel-Lindau disease tumor suppressor/Nuclear receptor coactivator 4 (Homo sapiens, UniProt P40337+Q13772). In words: PROTAC activity at NCOA4/VHL in human HeLa cells assessed as induction of NCOA4 degradation at 50 nM measured for 24 hrs by Western blot analysis. It is filed as cell-based. (A western blot detects proteins with antibodies after separation by electrophoresis.)

For test [2], the target named is T1, von Hippel-Lindau disease tumor suppressor/Nuclear receptor coactivator 4. In words: PROTAC activity at NCOA4/VHL in human HeLa cells assessed as induction of NCOA4 degradation at 4 uM measured for 24 hrs by immunoprecipitation analysis. It is filed as cell-based.

T1 sequence (P40337 whole entry, looked up): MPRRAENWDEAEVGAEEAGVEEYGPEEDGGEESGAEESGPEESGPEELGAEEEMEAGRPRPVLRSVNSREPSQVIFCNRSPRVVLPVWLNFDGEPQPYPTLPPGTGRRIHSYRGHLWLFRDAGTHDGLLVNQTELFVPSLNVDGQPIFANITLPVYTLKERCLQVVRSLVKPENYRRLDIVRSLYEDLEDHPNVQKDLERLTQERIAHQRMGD
T1 sequence (Q13772 whole entry, looked up): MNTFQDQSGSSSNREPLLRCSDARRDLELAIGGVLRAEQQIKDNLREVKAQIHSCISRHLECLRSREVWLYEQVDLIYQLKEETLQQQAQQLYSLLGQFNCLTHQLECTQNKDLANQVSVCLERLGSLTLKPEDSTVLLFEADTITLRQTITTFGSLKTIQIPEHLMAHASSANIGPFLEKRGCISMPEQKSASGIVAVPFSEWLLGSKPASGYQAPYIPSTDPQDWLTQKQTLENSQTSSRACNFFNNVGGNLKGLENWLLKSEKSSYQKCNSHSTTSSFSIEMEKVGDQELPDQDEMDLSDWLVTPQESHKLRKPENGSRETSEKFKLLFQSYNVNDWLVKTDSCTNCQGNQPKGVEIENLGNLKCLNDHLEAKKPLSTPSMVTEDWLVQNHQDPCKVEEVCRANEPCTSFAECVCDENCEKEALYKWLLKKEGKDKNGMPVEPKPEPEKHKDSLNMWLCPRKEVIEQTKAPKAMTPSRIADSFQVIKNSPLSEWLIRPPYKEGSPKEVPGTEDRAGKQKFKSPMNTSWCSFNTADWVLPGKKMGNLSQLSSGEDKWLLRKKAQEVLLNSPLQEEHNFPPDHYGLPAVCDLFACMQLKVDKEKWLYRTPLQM

Regarding `CC(=O)N(O)CCCCCNC(=O)CCC(=O)N(O)CCCCCNC(=O)CCC(=O)N(O)CCCCCN` [DEFEROXAMINE], the EC50 (commonly the concentration at which the effect is half-maximal) in the test with AML12 was 8.83 µM.
Consider `CN1CCN(c2ccc3nc(-c4cccc(N5CCc6cc(F)ccc6C5)c4)[nH]c3c2)CC1`, for which the result in test [1] was Active.
For `CCOC(=O)c1ccc(NC2CCCCC2)c(N)c1`, the EC50 in the test on AML12 turned out to be 0.104 µM.
For `CC(C)C[C@@H](C=O)NC(=O)[C@H](CC(C)C)NC(=O)[C@H](CC(C)C)NC(=O)OCc1ccccc1` (Cbz-Leu-Leu-Leu-aldehyde), the result in test [2] was Active.
